How the values were obtained:
[1] = target: human Bruton's Tyrosine Kinase (Btk) (Homo sapiens (Human), UniProt Q06187); experiment: Recombinant Human Bruton's Tyrosine Kinase (Btk) Inhibition Assay (HTRF KinEASE-TK); format: biochemical; conditions: 20 ng/ml rhBtk, 77 μM ATP (KM), 1 μM TK-Biotin substrate, 90 min; read-out: hBTK IC50
[2] = tested on: mouse splenocytes; experiment: Inhibition of B Cell Activation as Measured by CD69 Expression in Mouse Splenocytes; format: cell-based; conditions: Splenocyte; C57/BL6 splenocytes, 3 ug/mL goat anti-mouse IgM, 18-20 hrs, CD69+ve cells within CD19; read-out: Mouse spleenocyte IC50
Method in brief: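 Total mouse splenocytes pre-incubated with compounds (half-log dilutions; DMSO 200× stocks from 2 mM) 30 min at 37 °C, then stimulated with 3 ug/mL anti-mouse IgM for 18-20 hrs. CD69+ cells within CD19+ B cells quantified by flow cytometry; IC50 from variable-slope sigmoid dose-response fit.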

Chain of human Bruton's Tyrosine Kinase (Btk) (Q06187 whole entry): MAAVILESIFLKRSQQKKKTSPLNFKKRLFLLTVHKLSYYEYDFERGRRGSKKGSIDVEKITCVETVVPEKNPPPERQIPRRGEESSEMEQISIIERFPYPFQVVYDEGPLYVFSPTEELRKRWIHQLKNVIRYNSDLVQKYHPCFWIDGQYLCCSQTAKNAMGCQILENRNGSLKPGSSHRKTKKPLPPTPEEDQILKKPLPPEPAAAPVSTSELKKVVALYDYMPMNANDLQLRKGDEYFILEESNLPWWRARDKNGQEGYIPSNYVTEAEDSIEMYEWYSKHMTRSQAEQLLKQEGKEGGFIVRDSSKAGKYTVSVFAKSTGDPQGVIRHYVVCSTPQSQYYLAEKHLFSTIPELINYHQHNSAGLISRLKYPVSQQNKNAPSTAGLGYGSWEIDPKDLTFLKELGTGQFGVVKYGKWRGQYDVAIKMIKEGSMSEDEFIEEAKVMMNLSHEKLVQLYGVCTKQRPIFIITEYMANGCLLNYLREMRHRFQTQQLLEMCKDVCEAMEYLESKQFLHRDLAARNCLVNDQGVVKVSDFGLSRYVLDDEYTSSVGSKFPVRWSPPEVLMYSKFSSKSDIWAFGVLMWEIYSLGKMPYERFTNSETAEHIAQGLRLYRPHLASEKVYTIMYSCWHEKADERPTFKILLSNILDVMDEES

Row | IC50 [1] [µM] | IC50 [2] [µM] | SMILES
1 | 0.036 | > 1 | Cc1c(-c2ncnc3[nH]c(-c4ccc(C(=O)N5CCNCC5)cc4)cc23)cccc1N1CCc2cc(C3CC3)ccc2C1=O [Example K-19, 6-cyclopropyl-2-[2-methyl-3-[6-[4-(piperazine-1-carbonyl)phenyl]-7H-pyrrolo[2,3-d]pyrimidin-4-yl]phenyl]-3,4-dihydroisoquinolin-1-one]
2 | 0.0012 | 0.057 | O=C(CN1CC=C(c2cc3c(-c4cccc(N5CCOc6cc(C7CC7)cc(F)c6C5=O)c4CO)ccnc3[nH]2)CC1)N1CCC1 [Example P-22, 4-[3-[2-[1-[2-(azetidin-1-yl)-2-oxo-ethyl]-3,6-dihydro-2H-pyridin-4-yl]-1H-pyrrolo[2,3-b]pyridin-4-yl]-2-(hydroxymethyl)phenyl]-8-cyclopropyl-6-fluoro-2,3-dihydro-1,4-benzoxazepin-5-one]
3 | 0.008 | 0.06 | O=C1c2ccc(C3CC3)cc2OCCN1c1cccc(-c2ncnc3[nH]c(-c4ccc(CN5CCOCC5)cc4)cc23)c1CO [Example B-5, 8-cyclopropyl-4-[2-(hydroxymethyl)-3-[6-[4-(morpholinomethyl)phenyl]-7H-pyrrolo[2,3-d]pyrimidin-4-yl]phenyl]-2,3-dihydro-l,4-benzoxazepin-5-one]
4 | 0.004 | 0.13 | C=CC(=O)N1CCCC(n2cc(-c3cc4c(-c5cccc(N6CCOc7cc(C8CC8)ccc7C6=O)c5CO)ncnc4[nH]3)cn2)C1 (stereo not drawn) [Example S-1, 8-cyclopropyl-4-[2-(hydroxymethyl)-3-[6-[1-(1-prop-2-enoyl-3-piperidyl)pyrazol-4-yl]-7H-pyrrolo[2,3-d]pyrimidin-4-yl]phenyl]-2,3-dihydro-1,4-benzoxazepin-5-one]
5 | 0.012 | 0.036 | CN1CCN(c2ccc(-c3cc4c(-c5cccc(N6CCOc7cc(C8CC8)ccc7C6=O)c5CO)ncnc4[nH]3)cc2)CC1 [Example C-2, 8-cyclopropyl-4-[2-(hydroxymethyl)-3-[6-[4-(4-methylpiperazin-1-yl)phenyl]-7H-pyrrolo[2,3-d]pyrimidin-4-yl]phenyl]-2,3-dihydro-1,4-benzoxazepin-5-one]
6 | 0.002 | 0.046 | CCN1CCN(Cc2ccc(-c3cc4c(-c5cccc(N6CCOc7cc(C8CC8)cc(F)c7C6=O)c5CO)ccnc4[nH]3)nc2)CC1 [Example I-12, 8-cyclopropyl-4-[3-[2-[5-[(4-ethylpiperazin-1-yl)methyl]-2-pyridyl]-1H-pyrrolo[2,3-b]pyridin-4-yl]-2-(hydroxymethyl)phenyl]-6-fluoro-2,3-dihydro-1,4-benzoxazepin-5-one]
7 | 0.044 | 0.195 | Cc1c(-c2ncnc3[nH]c(-c4ccc(C(=O)N5CCC(O)CC5)cc4)cc23)cccc1-n1ncc2cc(C3CC3)ccc2c1=O [Example K-20, 6-cyclopropyl-2-[3-[6-[4-(4-hydroxypiperidine-1-carbonyl)phenyl]-7H-pyrrolo[2,3-d]pyrimidin-4-yl]-2-methyl-phenyl]phthalazin-1-one]
8 | 0.0015 | 0.018 | CN1CCN(Cc2ccc(-c3cc4c(-c5cccc(N6CCOc7cc(C8CC8)cc(F)c7C6=O)c5CO)ccnc4[nH]3)nc2)CC1=O [Example I-15, 8-cyclopropyl-6-fluoro-4-[2-(hydroxymethyl)-3-[2-[5-[(4-methyl-3-oxo-piperazin-1-yl)methyl]-2-pyridyl]-1H-pyrrolo[2,3-b]pyridin-4-yl]phenyl]-2,3-dihydro-1,4-benzoxazepin-5-one]
9 | 0.055 | 0.171 | Cc1c(-c2nc(N)nc3[nH]c(-c4ccc(C(=O)N5CCOCC5)cc4)cc23)cccc1N1CCOc2cc(C3CC3)ccc2C1=O [Example O-1, 4-[3-[2-amino-6-[4-(morpholine-4-carbonyl)phenyl]-7H-pyrrolo[2,3-d]pyrimidin-4-yl]-2-methyl-phenyl]-8-cyclopropyl-2,3-dihydro-1,4-benzoxazepin-5-one]
10 | 0.002 | 0.021 | CC(C)N1CCN(Cc2ccc(-c3cc4c(-c5cccc(N6CCOc7cc(C8CC8)ccc7C6=O)c5CO)ccnc4[nH]3)nc2)CC1 [Example I-7, 8-cyclopropyl-4-[2-(hydroxymethyl)-3-[2-[5-[(4-isopropylpiperazin-1-yl)methyl]-2-pyridyl]-1H-pyrrolo[2,3-b]pyridin-4-yl]phenyl]-2,3-dihydro-1,4-benzoxazepin-5-one]
11 | 0.0053 | 0.052 | NC(=O)CN1CC=C(c2cc3c(-c4cccc(N5CCOc6cc(C7CC7)cc(F)c6C5=O)c4CO)ccnc3[nH]2)CC1 [Example P-31, 2-[4-[4-[3-(8-cyclopropyl-6-fluoro-5-oxo-2,3-dihydro-1,4-benzoxazepin-4-yl)-2-(hydroxymethyl)phenyl]-1H-pyrrolo[2,3-b]pyridin-2-yl]-3,6-dihydro-2H-pyridin-1-yl]acetamide]
12 | 0.009 | 0.179 | CN1CCC(F)(c2ccc(-c3cc4c(-c5cccc(N6CCOc7cc(C8CC8)ccc7C6=O)c5CO)ccnc4[nH]3)cc2)CC1 [Example J-1, 8-cyclopropyl-4-[3-[2-[4-(4-fluoro-1-methyl-4-piperidyl)phenyl]-1H-pyrrolo[2,3-b]pyridin-4-yl]-2-(hydroxymethyl)phenyl]-2,3-dihydro-1,4-benzoxazepin-5-one]

Source: US9233983B2, “Substituted hetero-bicyclic compounds, compositions and medicinal applications thereof” (ADVINUS THERAPEUTICS LIMITED, priority 2012, dated 2016)
